Results: patent US8299267B2, “(3-hydroxy-4-amino-butan-2-yl) -3- (2-thiazol-2-yl-pyrrolidine-1-carbonyl) benzamide derivatives and related compounds as beta-secretase inhibitors for treating” (CoMentis, Inc., priority 2007, dated 2012)

Tests used:
[1] = system: Aβ production in Chinese hamster ovary cells that over-express human APP695 with the London and Swedish mutations; test: Cellular Aβ IC50 determination (Aβ40 sandwich ELISA); format: cell-based; settings: Cricetulus griseus; Aβ40 in CHO cells over-expressing human APP695, 24 h incubation
Method: The potency of compounds against memapsin 2 activity was determined in a cellular assay of Aβ production. […] Chinese hamster ovary cells that over-express human APP695 with the London and Swedish mutations were seeded in multi-well plates at 10% confluency. Compounds are dissolved in DMSO to concentrations near 1 mM, and diluted into culture media to a final concentration near 4 μM (final 0.4% DMSO). Compounds were diluted serially and applied to cells in multi-well plates 48 h after seeding. Incubation was continued in 5% CO2 at 37° C. for 24 h. Aliquots were removed and assayed for Aβ40 content using a sandwich ELISA (BioSource International). Amount of Aβ40 over the range of concentration of compounds, relative to control incubations, were fit to a 4-parameter IC50 model.

memapsin 2 = memapsin 2 (Homo sapiens, UniProt P56817); test: Inhibition of memapsin 2 beta-secretase activity toward fluorogenic substrate FS-2; format: biochemical; settings: memapsin 2, pH 4, 37° C., 20 minutes pre-incubation, substrate FS-2; read-out: M2Ki
Chain of memapsin 2 (P56817 46-501): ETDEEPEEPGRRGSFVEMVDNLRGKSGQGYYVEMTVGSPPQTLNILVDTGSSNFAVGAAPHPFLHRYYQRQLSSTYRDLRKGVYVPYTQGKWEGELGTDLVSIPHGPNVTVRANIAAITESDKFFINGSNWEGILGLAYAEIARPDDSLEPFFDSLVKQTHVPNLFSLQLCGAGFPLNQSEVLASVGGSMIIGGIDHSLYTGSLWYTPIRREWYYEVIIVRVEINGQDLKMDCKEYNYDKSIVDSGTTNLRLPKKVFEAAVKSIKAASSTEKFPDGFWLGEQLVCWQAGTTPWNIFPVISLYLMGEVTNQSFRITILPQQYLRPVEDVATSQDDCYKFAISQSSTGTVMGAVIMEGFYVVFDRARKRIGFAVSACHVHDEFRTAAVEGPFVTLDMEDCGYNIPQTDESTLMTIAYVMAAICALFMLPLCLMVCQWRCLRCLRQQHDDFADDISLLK
Method: Potency of compounds were determined by measurement of their inhibition of memapsin 2 activity toward a fluorescent substrate. Kinetic inhibition experiments were performed using the procedure as described in Ermolieff, et al. (Biochemistry 39:12450-12456 (2000), the teachings of which are incorporated hereby in their entirety). Briefly, assays were performed at pH 4, 37° C., by pre-incubation of memapsin 2 enzyme with compound for 20 minutes. Activity measurements were initiated by addition of a fluorogenic substrate FS-2 (Bachem Americas, Torrance, Calif.) MCA-SEVNLDAEFK-DNP (SEQ ID NO.: 2). The substrate was derived from 10 amino acids of the human amyloid precursor protein (APP), with the Swedish variant amino acids at the beta-secretase cleavage site. The terminal amino acid was modified from arginine to lysine to facilitate derivatization with a functional group for detection by autofluorescence. The amino acid sequence of the “core” peptide of the substrate is SEVNLDAEFK (SEQ ID NO.: 3). The amino terminus was derivatized with (7-methoxycoumarin-4-yl)acetyl (MCA), and the epsilon amine of the lysine side chain of the terminal residue (K in sequence SEVNLDAEFK (SEQ ID NO.: 4)) was derivatized with 2,4-dinitrophenyl (DNP).

Compound | IC50 [1] [nM] | Ki (memapsin 2) [nM]
Cc1csc([C@H]2CCCN2C(=O)c2cc(C(=O)N[C@@H](Cc3ccccc3)[C@H](O)CNCc3cccc(C(F)(F)F)c3)cc(-c3cccc(Cl)c3)n2)n1 [Compound 91, 2-(3-chlorophenyl)-N-((2S,3R)-3-hydroxy-1-phenyl-4-(3-(trifluoromethyl)benzylamino)butan-2-yl)-6-((R)-2-(4-methylthiazol-2-yl)pyrrolidine-1-carbonyl)isonicotinamide] | 301 to 500 | < 100
COc1cccc(CNC[C@@H](O)[C@H](Cc2ccccc2)NC(=O)c2cc(OC)cc(C(=O)N3CCC[C@@H]3c3nc(C)cs3)c2)c1 [Compound 11, N-((2S,3R)-3-hydroxy-4-(3-methoxybenzylamino)-1-phenylbutan-2-yl)-3-methoxy-5-((R)-2-(4-methylthiazol-2-yl)pyrrolidine-1-carbonyl)benzamide] | < 300 | < 100
Cc1cc(C(=O)N[C@@H](Cc2ccccc2)[C@H](O)CNCc2cncc(C(C)(C)F)c2)cc(C(=O)N2CCC[C@@H]2c2nc(C)co2)c1 [Compound 59, N-((2S,3R)-4-((5-(2-fluoropropan-2-yl)pyridin-3-yl)methylamino)-3-hydroxy-1-phenylbutan-2-yl)-3-methyl-5-((R)-2-(4-methyloxazol-2-yl)pyrrolidine-1-carbonyl)benzamide] | < 300 | < 100
Cc1csc([C@H]2CCCN2C(=O)c2cc(C(=O)N[C@@H](Cc3ccccc3)[C@H](O)CNCc3cncc(C(C)C)c3)cc(-c3ncco3)c2)n1 [Compound 25, N-((2S,3R)-3-hydroxy-4-((5-isopropylpyridin-3-yl)methylamino)-1-phenylbutan-2-yl)-3-((R)-2-(4-methylthiazol-2-yl)pyrrolidine-1-carbonyl)-5-(oxazol-2-yl)benzamide] | < 300 | < 100
Cc1coc([C@H]2CCCN2C(=O)c2cccc(C(=O)N[C@@H](Cc3ccccc3)[C@H](O)CNCc3cncc(C(C)(C)F)c3)c2)n1 [Compound 39, N-((2S,3R)-4-((5-(2-fluoropropan-2-yl)pyridin-3-yl)methylamino)-3-hydroxy-1-phenylbutan-2-yl)-3-((R)-2-(4-methyloxazol-2-yl)pyrrolidine-1-carbonyl)benzamide] | < 300 | < 100
Cc1coc([C@H]2CCCN2C(=O)c2cccc(C(=O)N[C@@H](Cc3ccccc3)[C@H](O)CNCc3cncc(C(C)C)c3)c2)n1 [Compound 34, N-((2S,3R)-3-hydroxy-4-((5-isopropylpyridin-3-yl)methylamino)-1-phenylbutan-2-yl)-3-((R)-2-(4-methyloxazol-2-yl)pyrrolidine-1-carbonyl)benzamide] | < 300 | < 100
CNc1cc(CNC[C@@H](O)[C@H](Cc2ccccc2)NC(=O)c2cccc(C(=O)N3CCC[C@@H]3c3nc(C)cs3)c2)cc(C(F)(F)F)c1 [Compound 85, N-((2S,3R)-3-hydroxy-4-(3-(methylamino)-5-(trifluoromethyl)benzylamino)-1-phenylbutan-2-yl)-3-((R)-2-(4-methylthiazol-2-yl)pyrrolidine-1-carbonyl)benzamide] | < 300 | < 100
Cc1coc([C@H]2CCCN2C(=O)c2cc(CF)cc(C(=O)N[C@@H](Cc3ccccc3)[C@H](O)CNCc3cccc(C(C)(C)C)c3)c2)n1 [Compound 95, N-((2S,3R)-4-(3-tert-butylbenzylamino)-3-hydroxy-1-phenylbutan-2-yl)-3-(fluoromethyl)-5-((R)-2-(4-methyloxazol-2-yl)pyrrolidine-1-carbonyl)benzamide] | < 300 | < 100

Results, then the compound that gave them:

IC50 [1] [nM] | Ki (memapsin 2) [nM] | Compound
< 300 | < 100 | Cc1cc(C(=O)N[C@@H](Cc2ccccc2)[C@H](O)CNCc2cccc(C(C)(F)F)c2)cc(C(=O)N2CCC[C@@H]2c2nc(C)co2)c1 [Compound 104, N-((2S,3R)-4-(3-(1,1-difluoroethyl)benzylamino)-3-hydroxy-1-phenylbutan-2-yl)-3-methyl-5-((R)-2-(4-methyloxazol-2-yl)pyrrolidine-1-carbonyl)benzamide]
< 300 | < 100 | Cc1csc([C@H]2CCCN2C(=O)c2cncc(C(=O)N[C@@H](Cc3ccccc3)[C@H](O)CNCc3cc(Cl)cc(Cl)c3)c2)n1 [Compound 60, N-((2S,3R)-4-(3,5-dichlorobenzylamino)-3-hydroxy-1-phenylbutan-2-yl)-5-((R)-2-(4-methylthiazol-2-yl)pyrrolidine-1-carbonyl)nicotinamide]
< 300 | < 100 | COC[C@H]1CCCN1C(=O)c1cc(C)cc(C(=O)N[C@@H](Cc2ccccc2)[C@H](O)CNCc2cncc(C(C)C)c2)c1 [Compound 23, N-((2S,3R)-3-hydroxy-4-((5-isopropylpyridin-3-yl)methylamino)-1-phenylbutan-2-yl)-3-((R)-2-(methoxymethyl)pyrrolidine-1-carbonyl)-5-methylbenzamide]
< 300 | < 100 | COc1cc(C(=O)N[C@@H](Cc2ccccc2)[C@H](O)CNCc2cncc(C(C)C)c2)cc(C(=O)N2CCC[C@@H]2c2nc(C)co2)c1 [Compound 89, N-((2S,3R)-3-hydroxy-4-((5-isopropylpyridin-3-yl)methylamino)-1-phenylbutan-2-yl)-3-methoxy-5-((R)-2-(4-methyloxazol-2-yl)pyrrolidine-1-carbonyl)benzamide]
< 300 | < 100 | Cc1csc([C@H]2CCCN2C(=O)c2cccc(C(=O)N[C@@H](Cc3ccccc3)[C@H](O)CNCc3cccc(N(C)C)c3)c2)n1 [Compound 69, N-((2S,3R)-4-(3-(dimethylamino)benzylamino)-3-hydroxy-1-phenylbutan-2-yl)-3-((R)-2-(4-methylthiazol-2-yl)pyrrolidine-1-carbonyl)benzamide]
< 300 | < 100 | Cc1cc(C(=O)N[C@@H](Cc2ccccc2)[C@H](O)CNCc2cccc(C(F)(F)F)c2)cc(C(=O)N2CCC[C@@H]2c2nc(C)co2)c1 [Compound 55, N-((2S,3R)-3-hydroxy-1-phenyl-4-(3-(trifluoromethyl)benzylamino)butan-2-yl)-3-methyl-5-((R)-2-(4-methyloxazol-2-yl)pyrrolidine-1-carbonyl)benzamide]
< 300 | < 100 | Cc1cc(C(=O)N2CCC[C@@H]2c2nc(C)cs2)cc(C(=O)N[C@@H](Cc2ccccc2)[C@H](O)CNCc2cccc(C(F)(F)F)c2)n1 [Compound 68, N-((2S,3R)-3-hydroxy-1-phenyl-4-(3-(trifluoromethyl)benzylamino)butan-2-yl)-6-methyl-4-((R)-2-(4-methylthiazol-2-yl)pyrrolidine-1-carbonyl)picolinamide]
< 300 | < 100 | Cc1csc([C@H]2CCCN2C(=O)c2cccc(C(=O)N[C@@H](Cc3ccccc3)[C@H](O)CNCc3cc(O)cc(C(C)C)c3)c2)n1 [Compound 24, N-((2S,3R)-3-hydroxy-4-(3-hydroxy-5-isopropylbenzylamino)-1-phenylbutan-2-yl)-3-((R)-2-(4-methylthiazol-2-yl)pyrrolidine-1-carbonyl)benzamide]
< 300 | < 100 | Cc1csc([C@H]2CCCN2C(=O)c2cc(C(=O)N[C@@H](Cc3ccccc3)[C@H](O)CNCc3cccc(C(F)(F)F)c3)cc(-c3ncco3)c2)n1 [Compound 28, N-((2S,3R)-3-hydroxy-1-phenyl-4-(3-(trifluoromethyl)benzylamino)butan-2-yl)-3-((R)-2-(4-methylthiazol-2-yl)pyrrolidine-1-carbonyl)-5-(oxazol-2-yl)benzamide]
